According to the NIST ThermoML archive (doi:10.1016/j.jct.2014.01.020):

Legend:
[1] = Liquid; for mass density: Vibrating tube method; for viscosity: 101 kPa, Concentric cylinders viscometry
[2] = molar heat capacity at constant pressure; details: Liquid, Flow calorimetry

C1CCCCC1 [cyclohexane]
Details	mass density, [1] [kg/m3]	molar heat capacity at constant pressure, [2] [J/K/mol]
293.15 K, 100 kPa	778.4	154.7
293.15 K, 1000 kPa	779.1	–
293.15 K, 2000 kPa	779.9	–
293.15 K, 5000 kPa	782.4	153.8
293.15 K, 10000 kPa	786.3	152.5
293.15 K, 15000 kPa	789.9	150.5
293.15 K, 20000 kPa	793.4	149.7
293.15 K, 25000 kPa	–	147.7
303.15 K, 100 kPa	769	–
303.15 K, 1000 kPa	769.8	–
303.15 K, 2000 kPa	770.7	–
303.15 K, 5000 kPa	773.3	–
303.15 K, 10000 kPa	777.5	–
303.15 K, 15000 kPa	781.3	–
303.15 K, 20000 kPa	785.1	–
303.15 K, 30000 kPa	792.1	–
303.15 K, 40000 kPa	798.5	–
313.15 K, 100 kPa	759.7	–
313.15 K, 1000 kPa	760.3	–
313.15 K, 2000 kPa	761.2	–
313.15 K, 5000 kPa	764	–
313.15 K, 10000 kPa	768.4	–
313.15 K, 15000 kPa	772.6	–
313.15 K, 20000 kPa	776.6	–
313.15 K, 25000 kPa	–	154.6
313.15 K, 30000 kPa	784.1	–
313.15 K, 40000 kPa	790.9	–
323.15 K, 100 kPa	750.1	–
323.15 K, 1000 kPa	750.8	–
323.15 K, 2000 kPa	751.8	–
323.15 K, 5000 kPa	754.8	–
323.15 K, 10000 kPa	759.5	–
323.15 K, 15000 kPa	763.9	–
323.15 K, 20000 kPa	768.2	–
323.15 K, 30000 kPa	776.1	–
323.15 K, 40000 kPa	783.2	–
333.15 K, 100 kPa	740.3	–
333.15 K, 1000 kPa	741.1	–
333.15 K, 2000 kPa	742.2	–
333.15 K, 5000 kPa	745.5	–
333.15 K, 10000 kPa	750.5	–
333.15 K, 15000 kPa	755.3	–
333.15 K, 20000 kPa	759.7	–
333.15 K, 30000 kPa	768.1	–
333.15 K, 40000 kPa	775.6	–

[1]
Details	viscosity [mPa·s]
293.15 K	0.98
303.15 K	0.824
313.15 K	0.701
323.15 K	0.593
333.15 K	0.522
